Test results taken from paper PMC3049593 (British Journal of Cancer, 2011).

How the values were obtained:
[1] = blood pharmacokinetics of [3H]-PG545 in Hep3b tumour-bearing mice; assay type: in vivo; settings: for AUC0−t / Cmax / Tmax / t½: blood, 20 mg kg^−1 every 96 h
Protocol: Analysis of the tumour [^3H]-PG545 concentration vs time data required use of a more physiologically based PK model such that tumour concentrations were estimated from the tumour mass being perfused with blood containing [^3H]-PG545 and where the blood [^3H]-PG545 concentration changed over time. […]
(§1) Pharmacokinetic sampling and analysis
(§2) Samples were collected from three animals at each of four time points – 12 hours, 24 hours, 48 hours and 96 hours post-treatment. At each of these times, whole blood was collected by cardiac puncture and tumours were excised. After collection, 0.2 mL of whole blood was added to a glass scintillation vial to which 1 mL Solvable was added.
(§3) Samples were incubated for one hour at 55-60°C. 0.1 mL of 0.1 M EDTA-di-sodium salt solution and 0.3 mL to 0.5 mL of 30% hydrogen peroxide in 0.1 mL aliquots were added to the sample. Samples were gently agitated between additions to allow reaction foaming to subside. Samples were incubated for 30 minutes at room temperature. Vials were capped tightly and incubated again at 55 – 60 °C fo r 1 hour. Samples were cooled to room temperature and 15 mL of ULTIMA Gold added.
(§4) For tumour samples, 100 mg of tissue was placed in a 20 mL glass scintillation vial and 2 mL of Solvable added. The samples were incubated at 50 - 60 °C for 1 hour with occasional swirling. Samples were cooled to room temperature and for tumours, 0.3 mL of 30% hydrogen peroxide in three aliquots of 0.1 mL were added. The samples were again incubated at 50 - 60 °C for 1 hour with occasional swirling. Tumours samples were […]
(§5) then treated with 15 mL of ULTIMA Gold. To count radioactivity, a Tri-Carb 2800TR liquid scintillation counter from PerkinElmer was used at the Institute of Medical and Veterinary Science (Adelaide, Australia). All parameters were calculated using the QuantaSmart software package. Where DPM values were missing, the following procedure was performed. Efficiency was calculated by generating an efficiency curve using complete samples (where efficiency = Counts Per Minute/Disintegrations Per Minute), and plotted these values against the provided corresponding transformed spectral index of external standard (tSIE) values.
(§6) The pharmacokinetic parameters, Cmax (maximum plasma concentration), Tmax (time of maximum plasma concentration), kelim (terminal elimination rate constant), t½ (half-life), and AUC (area under the concentration versus time curve) were derived from the blood [3H]-PG545 concentration versus time data using model independent methods. In addition, a linear pharmacokinetic model comprising mono-exponential absorption and bi-exponential disposition and elimination was used to simultaneously model the mean blood concentration versus time data for [3H]-PG545 and the following pharmacokinetic parameters, Cmax and Tmax, t½, AUC0-t and AUC0-∞ for [3H]-PG545 were estimated.
(§7) Analysis of the tumour [3H]-PG545 concentration versus time data required use of a more physiologically-based pharmacokinetic model such that tumour concentrations were estimated on the basis of the tumour mass being perfused with blood containing [3H]- […]
(Applied Biosystems) preceded by a Spark Symbiosis Direct On-line Solid Phase Extraction system. Briefly, using a deep-well 96-well plate, 100 µL plasma was mixed with 10 µL standard solution (or water for unknowns) plus 10 µL internal standard solution (PG562 at 100 µg/mL (deionised water for double blank)).This was then mixed for at least 1 min (Ratek Platform Shaker) and incubated at room temperature for 20 mins prior to addition of 25 µL SDS solution (10 mg SDS in 1 mL deionised water) + 75 µL CHAPS solution (50 mg CHAPS in 1 mL deionised water) and 50 µL Proteinase K solution (10 mg Proteinase K in 1 mL 5 mM CaCl2). Following a mixing step this was incubated at 37°C for 2.5 hours prior to addition of 250 µL deionised water and placed into the Spark Symbiosis system.
The Tmax and Cmax on each sampling day were determined for each dose level by visual inspection of the mean data. […]

[2] = tumour and tissue pharmacokinetics of [3H]-PG545 in Hep3b tumour-bearing mice; assay type: in vivo; settings: for tumour AUC0-t / tumour Cmax: model independent analysis; for Kt, rate constant of uptake from the tumor / t½b / t½t: one compartment model
Source text: Analysis of the tumour [^3H]-PG545 concentration vs time data required use of a more physiologically based PK model such that tumour concentrations were estimated from the tumour mass being perfused with blood containing [^3H]-PG545 and where the blood [^3H]-PG545 concentration changed over time.
Table S1 – Pharmacokinetic analysis of mean tumour [3H]-PG545 concentrations in […]
Model Independent Analysis of Mean Tumor [3H]-PG545 Conc. Versus Time Data Parameter First Dose Second Dose Third Dose Notes: Cmax and Tmax were derived from visual inspection of the data following Cmax (µ g/ml) 37 45 44 s.c. administration of up to three doses of […]
One Compartment Model derived from Mean Tumor [3H]-PG545 Conc. Versus Time Data Parameter First Dose Second Dose Third Dose Notes: Based on assumptions including - 1) All processes are linear with no […]
timeframe of the experiment.
3) Tumor [3H]-PG545 conc is driven by the blood conc of [3H]-PG545 t½t (h) 15.7 15.4 16.3 4) Rate of uptake is proportional to blood […]
5) Rate of return from tumor to blood is proportional to tumor conc.
Kb is the rate constant of uptake into the tumor, in h-1
Kt is the rate constant of uptake from the tumor, in h-1 […]
as §1, §2, §3, §4, §5, §6, §7

Hep3b2.1-7 tumours = test: orthotopic Hep3b2.1-7 human liver cancer model; assay type: in vivo, mice; settings: 30 mg kg^−1 daily
Protocol: (§8) In the orthotopic Hep3b2.1-7 human liver cancer model, treatment of mice (n=10) began 14 days after inoculation of 2.5 × 10^6 cells. […] To initiate tumour xenografts, MDA-MB-231, PC3, Cal27 and HepG2 cells were injected s.c. into nude mice (n=8) at 4, 5, 2 and 2 × 10^7 cells ml^−1, respectively. […] In the B16F0 lung metastasis model, 2 × 10^5 cells were injected via the tail vein of C57Bl6 mice (n=8). […] Surface lung macrometastases were counted for each group (n=9) upon study termination. In the intrasplenic HT-29 xenograft model, 1 × 10^6 cells in 100 μl were injected into the spleen. […] Solid tumours were measured in two dimensions (length and width) and the tumour volume (cm^3) was calculated using the equation: V=length × width^2 × π/6. The anti-tumour activity was expressed as percent tumour growth inhibition (%TGI). Further details are available in Supplementary Methods. […]
In the Hep3b2.1-7 model, the cells resuspended in HBSS:MatrigelTM (1:1, v/v) to a final concentration of 5 x 10^8 cells/mL were inoculated following an incision into the skin directly over the liver to expose the main lobe of the liver. The needle was introduced into the main lobe of the liver, where 2.5 x 106 Hep3b2.1-7 cells (in 5 µL with 50% Matrigel) were discharged. The treatment of mice began 24 days after inoculation of the […]
either a once or twice weekly dosing schedule (see figure legends for dose schedules in each study) for up to three weeks. […]
(§9) efficacy/PK study) using either a once or twice weekly dosing schedule (see figure legends for dose schedules in each study) for up to three weeks. […]
(§10) In relevant models, solid tumours were measured in two dimensions (length and width) and the tumour volume (mm3) calculated using the equation V = length × width2 × π/6.The anti-tumour activity was assessed by the comparison of the mean tumour volume of the treated groups to the mean tumour volume of the control group and expressed as the percent Tumour Growth Inhibition (TGI) using the equation:
(§11) %TGI = (1-((VendPG545 - VstartPG545) / (VendControl - VstartControl)))*100 VendPG545 = Ending Tumour Volume of PG545-treated animal
(§12) VstartPG545 = Starting Tumour Volume of PG545-treated animal
(§13) VendControl = Ending Tumour Volume of Control animal
(§14) VstartControl = Starting Tumour Volume of Control animal […]
(§15) After collection, 0.2 mL of […]
(§16) whole blood was added to a glass scintillation vial to which 1 mL Solvable was added.
as §3, with “Vials were capped tightly and incubated again at 55 – 60 °C fo r 1 hour. Samples were cooled to room temperature and 15 mL of ULTIMA Gold added.” left out

[3] = system: LL/2 tumours and lung metastases; test: syngeneic Lewis Lung Carcinoma (LL/2) tumour growth and spontaneous metastasis model; assay type: in vivo, mice
Protocol: as §8, §9
In the LL/2 mouse model, treatment of mice commenced on the day of inoculation (Day 0). Mice inoculated subcutaneously were treated with either Vehicle Control […]
once weekly or Sorafenib (60mg/kg, once daily, p.o.). The treatments were continued for three weeks. The lungs were excised from all mice at the time of culling for metastasis […]
count determination. […]
as §10, §11, §12, §13, §14, §15, §16, §3, §4

[4] = 20 mg kg^−1 s.c. every 96 h, three doses

## [3H][C@H]1[C@H](O[C@@H]2O[C@H](COS(=O)(=O)[O-])[C@@H](O[C@H]3O[C@H](COS(=O)(=O)[O-])[C@@H](O[C@H]4O[C@H](COS(=O)(=O)[O-])[C@@H](O[C@H]5O[C@H](COS(=O)(=O)[O-])[C@@H](OS(=O)(=O)[O-])[C@H](OS(=O)(=O)[O-])[C@H]5OS(=O)(=O)[O-])[C@H](OS(=O)(=O)[O-])[C@H]4OS(=O)(=O)[O-])[C@H](OS(=O)(=O)[O-])[C@H]3OS(=O)(=O)[O-])[C@H](OS(=O)(=O)[O-])[C@H]2OS(=O)(=O)[O-])C[C@@H]2CC[C@H]3[C@@H]4CC[C@H]([C@H](C)CCCC(C)C)[C@@]4(C)CC[C@@H]3[C@@]2(C)[C@H]1[3H].[Na+].[Na+].[Na+].[Na+].[Na+].[Na+].[Na+].[Na+].[Na+].[Na+].[Na+].[Na+].[Na+] [[^3H]-PG545]
[1]; [4]
  mean blood Cmax (range over doses): 25900 to 29000 ng/mL
  mean blood Tmax (range over doses): 2 to 6 h
[1]; 20 mg kg^−1 s.c., up to three bolus doses at 96 h intervals
  mean elimination half-life (t½) in blood: > 50 h
[1]; first dose
  AUC0−t: 991 µg·h/mL
  Cmax: 28000 ng/mL
  Tmax: 4 h
  t½: 65 h
[1]; second dose
  AUC0−t: 1208 µg·h/mL
  Cmax: 26000 ng/mL
  Tmax: 2 h
[1]; third dose
  AUC0−t: 1556 µg·h/mL
  Cmax: 29000 ng/mL
  Tmax: 6 h
  t½: 117 h
[2]; following a single dose
  Cmax in kidney: 39 µg/g
  Cmax in liver: 106 µg/g
[2]; first dose
  tumour AUC0-t: 2800 µ g.h/g
  tumour Cmax: 37 µ g/ml
  Kt, rate constant of uptake from the tumor: 0.0441 h⁻¹
  t½b: 12.8 h
  t½t: 15.7 h
[2]; second dose
  tumour AUC0-t: 3662 µ g.h/g
  tumour Cmax: 45 µ g/ml
  Kt, rate constant of uptake from the tumor: 0.0449 h⁻¹
  t½b: 13.3 h
  t½t: 15.4 h
[2]; third dose
  tumour AUC0-t: 3304 µ g.h/g
  tumour Cmax: 44 µ g/ml
  Kt, rate constant of uptake from the tumor: 0.0425 h⁻¹
  t½b: 16.5 h
  t½t: 16.3 h
[2]; one-compartment PK model
  t½b, uptake from the bloodstream into the tumour (range over doses): 12.8 to 16.5 h
[2]; tumour tissue, 20 mg kg^−1 s.c. every 96 h, three doses
  tumour Cmax (range over doses): 36.6 to 45.1 µg/g
[2]; tumour tissue, one dose (first dose)
  tumour Tmax: 12 h
[2]; tumour tissue, three doses (third dose)
  tumour Tmax: ≥ 96 h
[2]; tumour tissue, two doses (second dose)
  tumour Tmax: 48 h

## CNC(=O)c1cc(Oc2ccc(NC(=O)Nc3ccc(Cl)c(C(F)(F)F)c3)cc2)ccn1 [sorafenib, reference compound]
Hep3b2.1-7 tumours
  TGI: 58%
[3]; 60 mg kg^−1 daily
  effect on metastasis: no effect on metastasis
[3]; 60 mg kg^−1 qd
  TGI (primary tumour): 44%
